Measured values from patent US20200055883A1, “CYCLIC DI-NUCLEOTIDES DERIVATIVE FOR THE TREATMENT OF CANCER” (Eisai R&D Management Co., Ltd., priority 2017, published 2020).

What was measured:
hepatocytes of human = experiment: Hepatocyte incubation, metabolite identification, human; assay type: in vitro ADME; conditions: LC-MS/MS
Excerpt: (§1) Cryopreserved pooled hepatocytes were purchased from ThermoFisher Scientific (Waltham, Mass.), Xenotech, LLC (Kansas City, Kans.) and In Vitro ADMET Laboratories (Columbia, Md.), and the appropriate media were purchased from In Vitro ADMET Laboratories (Columbia, Md.) and Life Technologies (Carlsbad, Calif.). AOPI staining solution and phosphate buffer were obtained from Corning Life Sciences (Tewksbury, Mass.) and Nexcelom Bioscience (Lawrence, Mass.), respectively. All chemicals, reagents, and solvents used in analysis were of either analytical or HPLC grade.
(§2) Prior to incubations, the cryopreserved hepatocytes were thawed in a water bath at 37° C. One tube of cryopreserved hepatocytes was added to each 50-mL conical tube of cryopreserved hepatocyte recovery medium (UCRM) obtained from In Vitro ADMET Laboratories (Columbia, Md.). The cells were spun in a Beckman centrifuge (Brea, Calif.) with a GH 3.8 rotor at 740 rpm for 10 minutes at room temperature 4° C. […] The solution was gently mixed and cells were counted using a Cellometer (Nexcelom, Lawrence, Mass.). […]
(§3) The LC-MS/MS system was composed of a Shimadzu HPLC and an AB-SCIEX TripleTOF 5600 hybrid quadrupole and TOF mass spectrometer (Framingham, Mass.). […] The samples obtained from incubations with hepatocytes were analyzed under both negative and positive scan modes. […]

human PBMC [1] = experiment: Ex vivo human PBMC stimulation assay, IFNβ protein; assay type: cell-based; conditions: 0.1, 1, 10 uM, 24 hours
Protocol: After 24 hours of incubation the tubes were centrifuged at 1400 rpm for 5 minutes and supernatants were harvested. Supernatant were stored in −80° C. for subsequent IFNβ measurement. IFNβ measurement was done using Human IFN-β Base Kit (Meso Scale Diagnostics cat # K151ADA) and protocol provided by manufacturer was used. IFN-beta estimation was done by reading assay plate at MESO SECTOR Imager 2400 and using MSD Discovery Workbench 4.0 program. After 24 hours IFNβ protein was analyzed.
Results shown in Table 10 reflect an average of measurements conducted using five different donors.

[2] = tested on: hepatocytes of Cynomolgus monkey; experiment: Hepatocyte incubation, metabolite identification, monkey; assay type: in vitro ADME; conditions: LC-MS/MS
Excerpt: as §1, §2, §3

[3] = tested on: hepatocytes of Beagle dog; experiment: Hepatocyte incubation, metabolite identification, dog; assay type: in vitro ADME; conditions: LC-MS/MS
Excerpt: as §1, §2, §3

[4] = tested on: hepatocytes of CD-1 mouse; experiment: Hepatocyte incubation, metabolite identification, mouse; assay type: in vitro ADME; conditions: LC-MS/MS
Excerpt: as §1, §2, §3

CT26 tumor = experiment: CT26 dual tumor model; conditions: all the lower doses (0.6-5 mg/kg), I.T., single dose
[5] = tested on: hepatocytes of Sprague Dawley rat; experiment: Hepatocyte incubation, metabolite identification, rat; assay type: in vitro ADME; conditions: LC-MS/MS
Excerpt: as §1, §2, §3

human PBMC [6] = experiment: Ex vivo human PBMC stimulation assay, IFNβ mRNA (qPCR); conditions: 0.1-10 μM, 3 hr and 24 hr

In the case of `O=[P@]1(S)OC[C@H]2O[C@@H]3[C@H](F)[C@@H]2O[P@](=O)(S)OC[C@H]2O[C@H]([C@H](F)[C@@H]2O1)n1cnc2c(ncnc21)NC/C=C/CNc1ncnc2c1ncn23` [Compound 1a], the “metabolites identified in hepatocyte incubations” value (shortened to “metabolites identified”) (hepatocytes of human) is reported as “No apparent metabolite”, the “induction of primary human PBMC IFNβ protein production” value (human PBMC [1]) is reported as “dose-dependent manner” and the “metabolites identified” value [2] is reported as “No apparent metabolite”. The “metabolites identified” value [3] was “No apparent metabolite”, the “metabolites identified” value [4] was “No apparent metabolite” and the “anti-tumor effect on untreated tumors” value (CT26 tumor) was “tumor growth inhibition activity”. For the same molecule, the “metabolites identified” value [5] was “No apparent metabolite” and the “induction of IFNβ mRNA in primary PBMC” value (human PBMC [6]) was “dose- and time-dependent manner”.
